The target in data set [1] is T1, trypsin from porcine pancreas (Sus scrofa, UniProt P00761).
T1 construct: purchased Sigma P7409; host or cells: porcine pancreas
Briefly: trypsin stability study (LC/MS). Format: in vitro ADME. Here is the method: (§1) Peptides for evaluation were prepared to a concentration of 1.0 mg/mL solutions in either pure water, sterile saline for injection (0.9% w/v NaCl/water) or 1× PBS (Dulbecco). 100 μL (100 μg/mL peptide) of these solutions was added to 900 μL of each protease solution. Additional experiments were performed examining protein degradation during exposure to serum and gastric fluid. For serum studies, peptides were incubated with 50% female Sprague-Dawley strain rat serum (SD rat serum). For gastric fluid studies, peptides were incubated 1:1 (volume:volume), fresh rat gastric fluid.
(§2) The peptide and enzyme (or serum or gastric fluid) were co-incubated in a temperature regulated water bath at 37° C. for the duration of the experiment. During each experiment 100 μL aliquots (10 μg peptide) of the incubated peptide-enzyme mixture were withdrawn periodically, quenched by addition of an equal volume of 5% TFA (v/v) in 1:1 water/acetonitrile to arrest proteolytic activity, and analyzed by liquid chromatography-mass spectrometry (LC/MS): Agilent Polaris C8-A column (4.6×100 mm, 3 micron) using a linear binary gradient of 10-90% MeCN (0.1% TFA v/v) in water (0.1% TFA v/v) over 30 minutes at 1.5 mL min^−1 at ambient temperature. Analytes were detected by both UV absorption at 210 nm and ionization using a Waters 3100 mass detector (ESI^+ mode). New peptidic species (fragments) derived from enzymatic cleavage of peptides were analyzed post-process, and their molecular masses were used to identify the precise cleavage position (highlighting the scissile bond in each case).

The target in data set [2] is T2, Neprilysin (rhNEP) (Homo sapiens, UniProt P08473).
T2 construct: purchased R&D Systems 1182-ZNC-010
Briefly: neprilysin stability study (LC/MS). The class given is in vitro ADME. On the procedure:
as §1, §2

Data set [3] addresses T3, hGLP-1R (Homo sapiens, UniProt P43220).
T3 construct: expressed in transfected cells
Nature of the data set: cAMP functional assay, cells expressing human GLP-1 receptor (primary assay). Format: cell-based.

Data set [4] deals with T4, hGIP-R (Homo sapiens, UniProt P48546).
T4 construct: expressed in transfected cells
T4 sequence (P48546 22-466): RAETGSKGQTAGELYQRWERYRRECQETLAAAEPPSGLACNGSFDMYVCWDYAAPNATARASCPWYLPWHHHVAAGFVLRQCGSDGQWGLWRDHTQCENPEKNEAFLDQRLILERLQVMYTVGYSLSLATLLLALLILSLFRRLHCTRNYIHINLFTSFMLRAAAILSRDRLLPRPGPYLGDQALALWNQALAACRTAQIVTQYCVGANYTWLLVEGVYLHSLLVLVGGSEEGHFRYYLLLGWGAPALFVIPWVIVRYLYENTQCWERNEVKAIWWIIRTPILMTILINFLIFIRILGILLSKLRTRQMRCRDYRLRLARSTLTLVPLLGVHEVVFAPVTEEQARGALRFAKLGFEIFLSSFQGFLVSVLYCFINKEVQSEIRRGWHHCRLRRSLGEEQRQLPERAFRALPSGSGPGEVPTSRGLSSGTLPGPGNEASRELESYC
Briefly: cAMP functional assay, cells expressing human GIP receptor (primary assay). The settings on record: n = 2. Format: cell-based.

Data set [5] addresses T5, Chymotrypsin (rhCTRC) (Homo sapiens, UniProt Q99895).
T5 construct: purchased R&D Systems 6907-SE-010
T5 sequence (Q99895 30-268): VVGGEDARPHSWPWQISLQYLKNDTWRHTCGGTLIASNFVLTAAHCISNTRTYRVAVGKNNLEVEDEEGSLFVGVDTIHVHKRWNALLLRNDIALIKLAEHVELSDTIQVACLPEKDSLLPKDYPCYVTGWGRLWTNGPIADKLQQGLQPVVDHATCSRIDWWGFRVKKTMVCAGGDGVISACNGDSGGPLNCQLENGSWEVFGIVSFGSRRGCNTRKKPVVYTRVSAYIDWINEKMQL
Briefly: chymotrypsin stability study (LC/MS). Format: in vitro ADME. The settings on record: chymotrypsin. On the procedure: as §1, §2

Data set [6] is described as follows: serum stability study (LC/MS). The settings on record: female, Sprague-Dawley; 50% SD rat serum, after 60 hours; read-out: peptide remaining intact. Format: in vitro ADME. Here is the method:
as §1
as §2, with “New peptidic species (fragments) derived from enzymatic cleavage of peptides were analyzed post-process, and their molecular masses were used to identify the precise cleavage position (highlighting the scissile bond in each case).” left out

Where a SMILES comes first, the peptide text is derived from it. [ ]: non-standard residue; d: D form. αMeF = C[C@](N)(Cc1ccccc1)C(=O)O; Aib = CC(C)(N)C(=O)O

T2 sequence (P08473 52-750 limits assumed): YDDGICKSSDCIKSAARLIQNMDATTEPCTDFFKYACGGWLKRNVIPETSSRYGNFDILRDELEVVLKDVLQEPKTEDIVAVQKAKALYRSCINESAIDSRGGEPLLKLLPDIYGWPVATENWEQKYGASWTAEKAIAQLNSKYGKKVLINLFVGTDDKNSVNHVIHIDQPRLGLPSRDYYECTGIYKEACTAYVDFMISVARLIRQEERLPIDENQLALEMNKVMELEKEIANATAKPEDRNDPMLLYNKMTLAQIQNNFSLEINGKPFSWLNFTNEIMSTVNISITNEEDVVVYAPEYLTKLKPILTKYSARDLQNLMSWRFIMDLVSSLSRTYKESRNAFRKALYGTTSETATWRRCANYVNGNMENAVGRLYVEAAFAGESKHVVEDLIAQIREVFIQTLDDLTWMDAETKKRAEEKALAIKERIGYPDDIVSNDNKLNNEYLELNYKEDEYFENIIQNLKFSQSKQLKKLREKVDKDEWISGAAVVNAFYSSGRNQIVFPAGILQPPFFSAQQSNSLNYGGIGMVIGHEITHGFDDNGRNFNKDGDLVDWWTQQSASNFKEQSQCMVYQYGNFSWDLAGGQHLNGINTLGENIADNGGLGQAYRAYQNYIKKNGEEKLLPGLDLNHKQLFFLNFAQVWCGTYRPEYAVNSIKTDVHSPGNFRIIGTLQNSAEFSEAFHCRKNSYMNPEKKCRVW
T1 sequence (P00761 9-231): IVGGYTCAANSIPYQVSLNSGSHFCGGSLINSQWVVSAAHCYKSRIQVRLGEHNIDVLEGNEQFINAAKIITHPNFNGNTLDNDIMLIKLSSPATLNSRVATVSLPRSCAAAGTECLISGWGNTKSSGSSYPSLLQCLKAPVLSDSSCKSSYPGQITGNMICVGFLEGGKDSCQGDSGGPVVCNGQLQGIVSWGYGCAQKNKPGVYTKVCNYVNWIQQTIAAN
T3 sequence (P43220 24-463): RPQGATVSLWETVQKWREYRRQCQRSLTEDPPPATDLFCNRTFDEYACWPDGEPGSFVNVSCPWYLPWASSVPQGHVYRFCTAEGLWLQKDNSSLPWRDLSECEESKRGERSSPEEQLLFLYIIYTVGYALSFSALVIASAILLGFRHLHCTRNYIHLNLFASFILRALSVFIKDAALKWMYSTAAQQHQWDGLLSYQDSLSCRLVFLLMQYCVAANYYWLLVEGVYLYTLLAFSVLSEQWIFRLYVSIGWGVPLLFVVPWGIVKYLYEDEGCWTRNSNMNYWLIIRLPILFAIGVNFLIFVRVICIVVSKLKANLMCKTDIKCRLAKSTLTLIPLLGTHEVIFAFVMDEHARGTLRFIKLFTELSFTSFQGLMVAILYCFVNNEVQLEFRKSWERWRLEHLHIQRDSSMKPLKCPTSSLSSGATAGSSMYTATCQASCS

Take `CC[C@H](C)[C@H](NC(=O)[C@](C)(Cc1ccccc1)NC(=O)[C@H](CCC(=O)O)NC(=O)[C@H](CCCCN)NC(=O)[C@H](C)NC(=O)[C@H](C)NC(=O)[C@H](CCC(N)=O)NC(=O)CNC(=O)[C@H](CCC(=O)O)NC(=O)[C@H](CC(C)C)NC(=O)[C@](C)(Cc1ccccc1)NC(=O)[C@H](CO)NC(=O)[C@H](CO)NC(=O)[C@@H](NC(=O)[C@H](CC(=O)O)NC(=O)[C@H](CO)NC(=O)[C@@H](NC(=O)[C@](C)(Cc1ccccc1)NC(=O)[C@H](CO)NC(=O)CNC(=O)[C@H](CCC(=O)O)NC(=O)C(C)(C)NC(=O)[C@@H](N)Cc1c[nH]cn1)[C@@H](C)O)C(C)C)C(=O)N[C@@H](C)C(=O)N[C@@](C)(Cc1ccccc1)C(=O)N[C@@H](CC(C)C)C(=O)N[C@H](C(=O)N[C@@H](CCCCN)C(=O)NCC(=O)N[C@@H](CCCNC(=N)N)C(N)=O)C(C)C` [SEQ ID NO: 38, H-(Aib)^2-EG-(S)^5-(α-MeF)^6-TSDV^10 SS-(α-MeF)^13-LE^15 GQAAK^20 E-(α-MeF)^22-IA-(α-MeF)^25 LVKGR^30] (H-H[Aib]EGS[αMeF]TSDVSS[αMeF]LEGQAAKE[αMeF]IA[αMeF]LVKGR-NH2): the “Trypsin resistance/susceptibility (Discussion / Description)” value in data set [1] (Table 2 description) was “Trypsin susceptibility”. The “time by which proteolytic degradation occurred (carboxyl side of Lys20, Lys28 and Arg30)” value in data set [1] (trypsin, 37° C.) is at most 90 min. Also, the “Neprilysin resistance (Discussion / Description)” value in data set [2] (Table 2 description) is recorded as “fully Neprilysin resistant but”. For the same molecule, the “proteolytic degradation over time-course” value in data set [2] (neprilysin, 96 hour time-course) is listed as “no proteolytic degradation”. Besides, the “stability after prolonged exposure” value in data set [2] (neprilysin, after 10 days (240 hours)) is reported as “still stable”. Further, the “potency compared to the GLP-1 comparator peptide, SEQ ID NO:4” value in data set [3] is listed as “equipotent”. The half-maximal effective concentration (EC50) in data set [3] (n = 2) is 0.0338 nM; in data set [4] it was 102 nM. In data set [5], the cleavage site observed result is recorded as “solely at the Leu26/Val27”. In data set [5] (37° C.), the “time by which degradation occurred” value was at most 48 h. Further, in data set [6], the fraction remaining at 60 h, 100 μg/mL was around 64%.

What is called EC50 is the concentration needed to bring the measured effect to its halfway point. What is called fraction remaining is what is left of the initial amount, in per cent.
